From patent US20220362396A1, “AMINO-PYRAZINECARBOXAMIDE COMPOUNDS, CONJUGATES, AND USES THEREOF” (Silverback Therapeutics, Inc., priority 2018, published 2022)

Columns and labels:
[1] = tested on: TGFβ/SMAD Signaling Pathway SBE reporter cell line; experiment: TGFβ reporter assay, in vitro small molecule screening (luciferase); type: cell-based; details: TGFβ stimulation, luminescence
Summary of the method: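 SBE luciferase reporter cells (~0.5×10^6 cells/mL) preincubated with compound 5-6 h at 37 °C in 0.5% FBS MEM, then stimulated with TGFβ (12 ng/mL stock) for 18 h. Luminescence read after luciferase substrate; EC50 from curve fits.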

[2] = molecular target: T1, TGFBR2 (Homo sapiens, UniProt P37173); experiment: TGFBR2 RBC assay (enzyme inhibition assay, Reaction Biology Corp.); type: biochemical
T1 construct: purchased Reaction Biology Corp
Protocol: Compounds of the disclosure were also assayed by Reaction Biology Corp. using the TGFBR2 RBC assay (enzyme inhibition assay). […] NT refers to not tested.

T1 sequence (P37173 23-567): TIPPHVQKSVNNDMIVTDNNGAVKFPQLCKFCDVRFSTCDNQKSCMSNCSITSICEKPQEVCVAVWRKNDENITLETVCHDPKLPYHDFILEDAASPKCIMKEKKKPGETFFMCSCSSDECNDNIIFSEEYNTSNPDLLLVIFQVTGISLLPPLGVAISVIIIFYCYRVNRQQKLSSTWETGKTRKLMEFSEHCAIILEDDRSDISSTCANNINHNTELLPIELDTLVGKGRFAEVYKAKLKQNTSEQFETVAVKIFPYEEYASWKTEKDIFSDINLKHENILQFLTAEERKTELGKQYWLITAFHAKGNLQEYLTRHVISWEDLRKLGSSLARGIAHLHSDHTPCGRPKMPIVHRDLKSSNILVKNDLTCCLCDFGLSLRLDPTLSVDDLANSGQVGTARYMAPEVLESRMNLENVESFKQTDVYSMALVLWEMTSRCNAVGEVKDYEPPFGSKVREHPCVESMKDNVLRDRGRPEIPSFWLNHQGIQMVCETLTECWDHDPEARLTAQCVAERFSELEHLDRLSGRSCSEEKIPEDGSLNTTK

| Structure (SMILES) | EC50 [1] [nM] | IC50 [2] [nM] |
| --- | --- | --- |
| CC(C)(C)OC(=O)NC1Cc2ccc(-c3cnc(N)c(C(=O)Nc4cnccc4N4CCOCC4)n3)cc2C1 (stereo not shown) [Compound 212] | 100 to 1000 | < 50 |
| COCCN(C)c1ccncc1NC(=O)c1nc(-c2ccc(CCNC(=O)OCc3ccccc3)cc2)cnc1N [Compound 101] | 100 to 1000 | 50 to 100 |
| Nc1ncc(-c2ccc(CCNC(=O)OCc3ccccc3)nc2)nc1C(=O)Nc1cnccc1N1CCOCC1 [Compound 124] | 100 to 1000 | 100 to 1000 |
| CC1c2ccc(-c3cnc(N)c(C(=O)Nc4cnccc4N4CCOCC4)n3)cc2CCN1C(=O)OC(C)(C)C (stereo not shown) [Compound 225] | 100 to 1000 | 100 to 1000 |
| CC(C)[C@H](N)C(=O)N1CCC[C@H]1C(=O)NCc1ccc(-c2cnc(N)c(C(=O)Nc3cnccc3N3CCOCC3)n2)cc1 [Compound 112] | 50 to 100 | < 50 |
| C[C@H](N)C(=O)NCc1ccc(-c2cnc(N)c(C(=O)Nc3cnccc3N3CCOCC3)n2)cc1 [Compound 106] | 100 to 1000 | 50 to 100 |
| NCCc1ccc(-c2cnc(N)c(C(=O)Nc3cnc4[nH]ccc4c3N3CCOCC3)n2)cc1 [Compound 134] | 100 to 1000 | < 50 |
| NCCCc1ccc(-c2cnc(N)c(C(=O)Nc3cc(F)ccc3N3CCOCC3)n2)cc1 [Compound 66] | > 1000 | 100 to 1000 |
| Nc1ncc(-c2ccc(CCNC(=O)OCc3ccccc3)cc2)nc1C(=O)Nc1cnccc1-c1ccccn1 [Compound 133] | > 1000 | < 50 |
| NCCNc1ccc(-c2cnc(N)c(C(=O)Nc3cnccc3N3CCOCC3)n2)cc1 [Compound 271] | 100 to 1000 | < 50 |
| COC1CCN(c2ccncc2NC(=O)c2nc(-c3ccc(CCNC(=O)OCc4ccccc4)cc3)cnc2N)CC1 [Compound 42] | 100 to 1000 | 50 to 100 |
| CC(C)(C)OC(=O)NC1CCN(c2cnc(N)c(C(=O)Nc3cnccc3N3CCOCC3)n2)CC1 [Compound 122] | > 1000 | > 1000 |
| Cc1nccn1-c1ccncc1NC(=O)c1nc(-c2ccc(CCNC(=O)OCc3ccccc3)cc2)cnc1N [Compound 3.1, Benzyl (4-(5-amino-6-((4-(2-methyl-1H-imidazol-1-yl)pyridin-3-yl)carbamoyl)pyrazin-2-yl)phenethyl)carbamate] | 100 to 1000 | < 50 |
| Nc1ncc(-c2ccc(O[C@@H]3CCCNC3)cc2)nc1C(=O)Nc1cnccc1N1CCOCC1 [Compound 168] | 50 to 100 | < 50 |
| NCCCCc1ccc(-c2cnc(N)c(C(=O)Nc3cnccc3N3CCOCC3)n2)cc1 [Compound 73] | 50 to 100 | < 50 |
| Nc1ncc(-c2ccc(CCC(=O)N3CCNCC3)cc2)nc1C(=O)Nc1cnccc1N1CCOCC1 [Compound 88] | 50 to 100 | < 50 |
| NCCc1ccc(-c2cnc(N)c(C(=O)Nc3cncc(Cl)c3N3CCOCC3)n2)cc1 [Compound 139] | 100 to 1000 | < 50 |
| Nc1ncc(-c2ccc(CCNC(=O)OCc3ccccc3)cc2)nc1C(=O)Nc1cnccc1-c1ccc(O)cc1 [Compound 34] | > 1000 | 100 to 1000 |
| Nc1ncc(-c2ccc3c(c2)CCC(O)C3)nc1C(=O)Nc1cnccc1N1CCOCC1 (stereo not shown) [Compound 249] | 100 to 1000 | < 50 |
| Nc1ncc(-c2ccc(CCNC(=O)OCc3ccccc3)cc2)nc1C(=O)Nc1cnccc1-n1cncn1 [Compound 188] | > 1000 | < 50 |
| Nc1ncc(-c2ccc(C[C@@H](N)C(=O)O)cc2)nc1C(=O)Nc1cnccc1N1CCOCC1 [Compound 197] | > 1000 | 100 to 1000 |
| Cc1cc(-c2ccncc2NC(=O)c2nc(-c3ccc(CCNC(=O)OCc4ccccc4)cc3)cnc2N)ccn1 [Compound 17] | 100 to 1000 | 100 to 1000 |
| NCCc1ccc(-c2cnc(N)c(C(=O)Nc3cnccc3-c3ccncc3)n2)cc1 [Compound 129] | 100 to 1000 | 50 to 100 |
| CN(CCNC(=O)OC(C)(C)C)c1ccc(-c2cnc(N)c(C(=O)Nc3cnccc3N3CCOCC3)n2)cc1 [Compound 267] | 100 to 1000 | < 50 |
| Nc1ncc(-c2ccc(CCNC(=O)OCc3ccccc3)cc2)nc1C(=O)Nc1cnccc1N1CCOCC1 [Compound 1.1, Benzyl (4-(5-amino-6-((4-morpholinopyridin-3-yl)carbamoyl)pyrazin-2-yl)phenethyl)carbamate] | 100 to 1000 | < 50 |

| Structure (SMILES) | EC50 [1] [nM] | IC50 [2] [nM] |
| --- | --- | --- |
| Nc1ncc(-c2ccc3c(c2)CCCC3O)nc1C(=O)Nc1cnccc1N1CCOCC1 (stereo not shown) [Compound 245] | 100 to 1000 | < 50 |
| Nc1ncc(-c2cccc(CNC(=O)OCc3ccccc3)c2)nc1C(=O)Nc1cnccc1N1CCOCC1 [Compound 176] | 100 to 1000 | < 50 |
| COC(=O)[C@@H](N)CCOc1ccc(-c2cnc(N)c(C(=O)Nc3cnccc3N3CCOCC3)n2)cc1 [Compound 263] | 100 to 1000 | < 50 |
| CC(CNC(=O)OC(C)(C)C)Oc1ccc(-c2cnc(N)c(C(=O)Nc3cnccc3N3CCOCC3)n2)cc1 (stereo not shown) [Compound 206] | 100 to 1000 | < 50 |
| Nc1ncc(-c2cccc(Cl)c2)nc1C(=O)Nc1cnccc1N1CCOCC1 [Compound 152] | 100 to 1000 | < 50 |
| Cc1nccn1-c1ccncc1NC(=O)c1nc(-c2ccc(CCN)cc2)cnc1N [Compound 4.1, 3-Amino-6-(4-(2-aminoethyl)phenyl)-N-(4-(2-methyl-1H-imidazol-1-yl)pyridin-3-yl)pyrazine-2-carboxamide] | 100 to 1000 | < 50 |
| Nc1ncc(-c2ccc3c(c2)CCC3O)nc1C(=O)Nc1cnccc1N1CCOCC1 (stereo not shown) [Compound 247] | 50 to 100 | < 50 |
| CC(C)(C)OC(=O)N1CCN(c2cnc(N)c(C(=O)Nc3cnccc3N3CCOCC3)n2)CC1 [Compound 115] | > 1000 | > 1000 |
| NCCc1ccc(-c2cnc(N)c(C(=O)Nc3cnccc3N3CCOCC3)n2)cc1 [Compound 6] | 50 to 100 | < 50 |
| CC(C)(C)OC(=O)NCCNc1ccc(-c2cnc(N)c(C(=O)Nc3cnccc3N3CCOCC3)n2)cc1 [Compound 266] | 100 to 1000 | < 50 |
| CC(CNC(=O)OC(C)(C)C)Oc1cccc(-c2cnc(N)c(C(=O)Nc3cnccc3N3CCOCC3)n2)c1 (stereo not shown) [Compound 191] | > 1000 | < 50 |
| COc1ccc(-c2ccncc2NC(=O)c2nc(-c3ccc(CCNC(=O)OCc4ccccc4)cc3)cnc2N)cn1 [Compound 16] | 100 to 1000 | < 50 |
| CC(=O)CCC(=O)NCCc1ccc(-c2cnc(N)c(C(=O)Nc3cnccc3N3CCOCC3)n2)cc1 [Compound 51] | 50 to 100 | < 50 |
| Nc1ncc(-c2ccc3c(c2)CCCNC3)nc1C(=O)Nc1cnccc1N1CCOCC1 [Compound 229] | 100 to 1000 | 50 to 100 |
| Nc1ncc(-c2ccc3c(c2)CCNC3CN2C(=O)c3ccccc3C2=O)nc1C(=O)Nc1cnccc1N1CCOCC1 (stereo not shown) [Compound 232] | > 1000 | < 50 |
| NCCc1ccc(-c2cnc(N)c(C(=O)Nc3cncc(-c4cccc(N)c4)c3)n2)cc1 [Compound 149] | > 1000 | 50 to 100 |
| NCCc1ccc(-c2cnc(N)c(C(=O)Nc3cncc(-c4ccccc4N)c3)n2)cc1 [Compound 148] | > 1000 | 100 to 1000 |
| CC(C)(C)OC(=O)N[C@H]1C[C@H](Oc2ccc(-c3cnc(N)c(C(=O)Nc4cnccc4N4CCOCC4)n3)cc2)C1 [Compound 221] | < 50 | < 50 |
| COc1ccc(-c2cnc(N)c(C(=O)Nc3cnccc3N3CCOCC3)n2)cc1OC [Compound 158] | 100 to 1000 | < 50 |
| CC(CN)Oc1cccc(-c2cnc(N)c(C(=O)Nc3cnccc3N3CCOCC3)n2)c1 (stereo not shown) [Compound 190] | 100 to 1000 | 50 to 100 |
| Nc1ncc(-c2ccc(C[C@H](N)C(=O)O)cc2)nc1C(=O)Nc1cnccc1N1CCOCC1 [Compound 208] | > 1000 | < 50 |
| NCCCc1cccc(-c2cnc(N)c(C(=O)Nc3cnccc3N3CCOCC3)n2)c1 [Compound 182] | 100 to 1000 | < 50 |
| Nc1ncc(-c2ccc3c(c2)CC(O)CC3)nc1C(=O)Nc1cnccc1N1CCOCC1 (stereo not shown) [Compound 246] | 100 to 1000 | < 50 |
| Nc1ncc(-c2cccc3ccccc23)nc1C(=O)Nc1cnccc1N1CCOCC1 [Compound 253] | > 1000 | 100 to 1000 |
| COc1ccc(-c2cnc(N)c(C(=O)Nc3cnccc3N3CCOCC3)n2)cc1 [Compound 156] | 100 to 1000 | < 50 |
